Among the data in patent US20170334899A1, “AMINO-SUBSTITUTED ISOTHIAZOLES” (Bayer Pharma Aktiengesellschaft, priority 2014, published 2017) are IC50 values, retold here.

For the experiment, the target named is T1, human kinase Mps-1 (Homo sapiens, UniProt P33981).
T1 construct: N-terminally GST-tagged human full length recombinant Mps-1 kinase; GST (N); purchased Invitrogen, Karslruhe, Germany PV4071
T1 sequence (P33981 1-857): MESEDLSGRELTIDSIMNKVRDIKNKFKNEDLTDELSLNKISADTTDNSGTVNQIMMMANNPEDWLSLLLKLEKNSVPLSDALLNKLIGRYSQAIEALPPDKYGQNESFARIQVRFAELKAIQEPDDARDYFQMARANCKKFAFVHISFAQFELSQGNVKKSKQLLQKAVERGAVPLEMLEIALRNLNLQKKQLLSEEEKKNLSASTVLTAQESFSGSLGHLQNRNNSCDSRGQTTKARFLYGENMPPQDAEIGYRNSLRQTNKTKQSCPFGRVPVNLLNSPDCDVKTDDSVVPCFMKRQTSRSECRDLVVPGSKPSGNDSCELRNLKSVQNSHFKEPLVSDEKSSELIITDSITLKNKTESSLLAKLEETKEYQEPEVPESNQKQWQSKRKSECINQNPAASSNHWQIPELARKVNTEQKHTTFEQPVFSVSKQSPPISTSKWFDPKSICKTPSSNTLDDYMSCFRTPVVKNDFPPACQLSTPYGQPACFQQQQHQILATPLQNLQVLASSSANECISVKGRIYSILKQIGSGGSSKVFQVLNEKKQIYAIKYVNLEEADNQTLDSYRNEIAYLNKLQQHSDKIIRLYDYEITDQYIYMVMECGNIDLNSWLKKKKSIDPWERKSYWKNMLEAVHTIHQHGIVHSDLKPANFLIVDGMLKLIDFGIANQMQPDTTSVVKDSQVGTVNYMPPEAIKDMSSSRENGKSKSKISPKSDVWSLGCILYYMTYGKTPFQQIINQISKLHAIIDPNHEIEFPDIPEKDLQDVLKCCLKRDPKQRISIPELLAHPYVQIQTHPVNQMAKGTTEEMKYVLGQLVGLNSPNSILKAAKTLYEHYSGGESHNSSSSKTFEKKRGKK
Kind of experiment: Mps-1 kinase assay (TR-FRET). Conditions: Mps-1 TR-FRET kinase assay; avg; read-out: Mps1 avg (IC50 [mol/l]). It is filed as biochemical. An outline of the steps:
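Inhibition normalised between uninhibited reaction (0%) and enzyme-free wells (100%), using the blank-corrected TR-FRET 665/620 nm ratio after EDTA stop. Reaction: ~0.5 nM GST-Mps-1 full length, 10 μM ATP, 1 μM biotin-peptide, 60 min at 22 °C, after 15 min compound pre-binding, pH 7.7.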
(In general: Time-resolved FRET reads energy transfer from a long-lived donor to a nearby acceptor.)
For the compound `Cc1nsc(Nc2cnc3ccccc3n2)c1C(=O)Nc1ccc(OC2CCN(CC(F)(F)F)CC2)nc1` [Example 21, 3-Methyl-5-(quinoxalin-2-ylamino)-N-(6-{[1-(2,2,2-trifluoroethyl)piperidin-4-yl]oxy}-pyridin-3-yl)-1,2-thiazole-4-carboxamide], the IC50 was not below 20 µM.
The figure for `CC(=O)N1CCC(Oc2ccc(NC(=O)c3c(C)nsc3Nc3cnc4ccccc4n3)cn2)CC1` [Example 22, N-{6-[(1-acetylpiperidin-4-yl)oxy]pyridin-3-yl}-3-methyl-5-(quinoxalin-2-ylamino)-1,2-thiazole-4-carboxamide] is not below 20 µM; for `Cc1nsc(Nc2cc(C#N)ccn2)c1C(=O)Nc1ccc(OC2CCN(C(=O)OC(C)(C)C)CC2)nc1` [Example 23, tert-Butyl 4-({5-[({5-[(4-cyanopyridin-2-yl)amino]-3-methyl-1,2-thiazol-4-yl}-carbonyl)amino]pyridin-2-yl}oxy)piperidine-1-carboxylate] it is 17 µM.
The value for `Cc1nsc(Nc2cc(C#N)ccn2)c1C(=O)Nc1ccc(OC2CCNCC2)nc1` [Example 24, 5-[(4-Cyanopyridin-2-yl)amino]-3-methyl-N-[6-(piperidin-4-yloxy)pyridin-3-yl]-1,2-thiazole-4-carboxamide] was 9 µM.
The figure for `Cc1nsc(Nc2cc(C#N)ccn2)c1C(=O)Nc1ccc(OC2CCN(CC(F)(F)F)CC2)nc1` [Example 25, 5-[(4-Cyanopyridin-2-yl)amino]-3-methyl-N-(6-{[1-(2,2,2-trifluoroethyl)piperidin-4-yl]oxy}pyridin-3-yl)-1,2-thiazole-4-carboxamide] is not below 20 µM.
Regarding `CCN1CCC(Oc2ccc(NC(=O)c3c(C)nsc3Nc3cc(C#N)ccn3)cn2)CC1` [Example 26, 5-[(4-Cyanopyridin-2-yl)amino]-N-{6-[(1-ethylpiperidin-4-yl)oxy]pyridin-3-yl}-3-methyl-1,2-thiazole-4-carboxamide], the IC50 was not below 20 µM.
The figure for `Cc1nsc(Nc2cnc3ccccc3n2)c1C(=O)Nc1ccc(N2CCN(C(=O)OC(C)(C)C)CC2)nc1` [Example 248, tert-butyl 4-[5-({[3-methyl-5-(quinoxalin-2-ylamino)-1,2-thiazol-4-yl]carbonyl}amino)pyridin-2-yl]piperazine-1-carboxylate] is more than 20 µM; for `Cc1nsc(Nc2cnc3ccccc3n2)c1C(=O)Nc1cccc(C(=O)NC2CC2)c1` [Example 249, N-[3-(cyclopropylcarbamoyl)phenyl]-3-methyl-5-(quinoxalin-2-ylamino)-1,2-thiazole-4-carboxamide] it is more than 20 µM.
The value for `Cc1nsc(Nc2ccc(C#N)cn2)c1C(=O)Nc1cccc(C(=O)NC2CC2)c1` [Example 250, 5-[(5-cyanopyridin-2-yl)amino]-N-[3-(cyclopropylcarbamoyl)phenyl]-3-methyl-1,2-thiazole-4-carboxamide] was more than 20 µM; that for `CCNC(=O)c1cccc(NC(=O)c2c(C)nsc2Nc2cnc3ccccc3n2)c1` [Example 251, N-[3-(ethylcarbamoyl)phenyl]-3-methyl-5-(quinoxalin-2-ylamino)-1,2-thiazole-4-carboxamide] was more than 20 µM.
The value for `CCNC(=O)c1cccc(NC(=O)c2c(C)nsc2Nc2ccc(C#N)cn2)c1` [Example 252, 5-[(5-cyanopyridin-2-yl)amino]-N-[3-(ethylcarbamoyl)phenyl]-3-methyl-1,2-thiazole-4-carboxamide] was more than 20 µM; that for `Cc1nsc(Nc2cnc3ccccc3n2)c1C(=O)Nc1cccc(C(=O)NC(C)C)c1` [Example 253, N-[3-(isopropylcarbamoyl)phenyl]-3-methyl-5-(quinoxalin-2-ylamino)-1,2-thiazole-4-carboxamide] was more than 20 µM.
For the compound `Cc1nsc(Nc2cc(C#N)ccn2)c1C(=O)Nc1cccc(C(=O)NC(C)C)c1` [Example 254, 5-[(4-cyanopyridin-2-yl)amino]-N-[3-(isopropylcarbamoyl)phenyl]-3-methyl-1,2-thiazole-4-carboxamide], the IC50 was more than 20 µM.
The value for `Cc1nsc(Nc2ccc(C#N)cn2)c1C(=O)Nc1cccc(C(=O)NC(C)C)c1` [Example 255, 5-[(5-cyanopyridin-2-yl)amino]-N-[3-(isopropylcarbamoyl)phenyl]-3-methyl-1,2-thiazole-4-carboxamide] was more than 20 µM; that for `COC(=O)CCCc1ccc(NC(=O)c2c(C)nsc2Nc2cc(C#N)ccn2)cc1` [Example 256, methyl 4-{4-[({5-[(4-cyanopyridin-2-yl)amino]-3-methyl-1,2-thiazol-4-yl}carbonyl)amino]phenyl}butanoate] was more than 20 µM; that for `COC(=O)CCc1cccc(NC(=O)c2c(C)nsc2Nc2cnc3ccccc3n2)c1` [Example 257, methyl 3-[3-({[3-methyl-5-(quinoxalin-2-ylamino)-1,2-thiazol-4-yl]carbonyl}amino)phenyl]propanoate] was more than 20 µM.
The figure for `Cc1nsc(Nc2cnc3ccccc3n2)c1C(=O)Nc1cccc(NS(=O)(=O)C2CCN(C(=O)OC(C)(C)C)CC2)c1` [Example 258, tert-butyl 4-{[3-({[3-methyl-5-(quinoxalin-2-ylamino)-1,2-thiazol-4-yl]carbonyl}amino)phenyl]sulfamoyl} piperidine-1-carboxylate] is more than 20 µM; for `Cc1nsc(Nc2cnc(C(F)(F)F)cn2)c1C(=O)Nc1ccc(C(=O)NC2CCN(CC(F)F)CC2)cc1` [Example 259, N-(4-{[1-(2,2-difluoroethyl)piperidin-4-yl]carbamoyl}phenyl)-3-methyl-5-{[5-(trifluoromethyl)pyrazin-2-yl]amino}-1,2-thiazole-4-carboxamide] it is more than 20 µM.
Turning to `Cc1nsc(Nc2cnc(C(F)(F)F)cn2)c1C(=O)Nc1ccc(C(=O)N2CCN(CC(F)(F)F)CC2)cc1` [Example 260, 3-methyl-N-(4-{[4-(2,2,2-trifluoroethyl)piperazin-1-yl]carbonyl}phenyl)-5-{[5-(trifluoromethyl)pyrazin-2-yl]amino}-1,2-thiazole-4-carboxamide], the IC50 is more than 20 µM.
The value for `CCN1CCN(C(=O)c2ccc(NC(=O)c3c(C)nsc3Nc3cnc(C(F)(F)F)cn3)cc2)CC1` [Example 261, N-{4-[(4-ethylpiperazin-1-yl)carbonyl]phenyl}-3-methyl-5-{[5-(trifluoromethyl)pyrazin-2-yl]amino}-1,2-thiazole-4-carboxamide] was more than 20 µM.
The figure for `Cc1nsc(Nc2cnc(C(F)(F)F)cn2)c1C(=O)Nc1ccc(C(=O)N2CCN(C)CC2)cc1` [Example 262, 3-methyl-N-{4-[(4-methylpiperazin-1 yl)carbonyl]phenyl}-5-{[5-(trifluoromethyl)pyrazin-2-yl]amino}-1,2-thiazole-4-carboxamide] is more than 20 µM; for `Cc1nsc(Nc2cc(C#N)ccn2)c1C(=O)Nc1ccc(OC2CCN(CC(F)F)CC2)nc1` [Example 263, 5-[(4-cyanopyridin-2-yl)amino]-N-(6-{[1-(2,2-difluoroethyl)piperidin-4-yl]oxy}pyridin-3-yl)-3-methyl-1,2-thiazole-4-carboxamide] it is more than 20 µM; for `Cc1nsc(Nc2cnc(C(F)(F)F)cn2)c1C(=O)Nc1ccc(F)c(OC2CCN(CC(F)(F)F)CC2)c1` [Example 264, N-(4-fluoro-3-{[1-(2,2,2-trifluoroethyl)piperidin-4-yl]oxy}phenyl)-3-methyl-5-{[5-(trifluoromethyl)pyrazin-2-yl]amino}-1,2-thiazole-4-carboxamide] it is more than 20 µM.
The figure for `Cc1nsc(Nc2cnc(C(F)(F)F)cn2)c1C(=O)Nc1ccc(F)c(OC2CCN(CC(F)F)CC2)c1` [Example 265, N-(3-{[1-(2,2-difluoroethyl)piperidin-4-yl]oxy}-4-fluorophenyl)-3-methyl-5-{[5-(trifluoromethyl)pyrazin-2-yl]amino}-1,2-thiazole-4-carboxamide] is more than 20 µM; for `Cc1nsc(Nc2cnc(C(F)(F)F)cn2)c1C(=O)Nc1ccc(F)c(OC2CCN(CCF)CC2)c1` [Example 266, N-(4-fluoro-3-{[1-(2-fluoroethyl)piperidin-4-yl]oxy}phenyl)-3-methyl-5-{[5-(trifluoromethyl)pyrazin-2-yl]amino}-1,2-thiazole-4-carboxamide] it is more than 20 µM.
With `Cc1nsc(Nc2cncc(C(F)(F)F)n2)c1C(=O)Nc1ccc(F)c(OC2CCN(CC(F)(F)F)CC2)c1` [Example 267, N-(4-fluoro-3-{[1-(2,2,2-trifluoroethyl)piperidin-4-yl]oxy}phenyl)-3-methyl-5-{[6-(trifluoromethyl)pyrazin-2-yl]amino}-1,2-thiazole-4-carboxamide], the IC50 was more than 20 µM.
